In patent publication US4080467A, “Pharmaceutical compositions comprising 1,3-dithiolan-2-ylidene malonate derivatives” (Nihon Nohyaku Co., Ltd., priority 1976, dated 1978):

Columns and labels:
[1] = system: Acute Liver Damage associated with Centrilobular Necrosis (carbon tetrachloride); assay: Protective effect on acute liver damage associated with centrilobular necrosis (carbon tetrachloride model); format: in vivo, mice (four-week-old male, dd strain); conditions: 250 mg/kg oral 6 h before CCl4, average of 5 to 6 mice; for p-GPT (plasma glutamic-pyruvic transaminase activity): 24 h after CCl4, values over 1,000 regarded as 1,000; for Liver Damage Index: 0 normal, 2 slightly recognized, 4 clearly observable damage, 6 heavy damage
From the text: Carbon tetrachloride (CCl4) administration induces centrilobular necrosis of the liver associated with loss of diphosphopyridine nucleotide, hepatic glycogen, coenzyme A and increase in neutral fat. Release of several enzymes from the hepatocytes, and increases of enzyme activities in the plasma are recognized as the result of the damage of the liver. A suitable means for evaluating the degree of damage induced by CCl4 or the degree of protection afforded by drugs is to study the plasma glutamic-pyruvic transaminase (p-GPT) activity.
Method: The test compounds were dissolved or suspended in olive oil and administered orally at the dose of 250 mg/kg to the mice (Four-week-old male mice-dd strain). After 6 hours, CCl4 was administered orally (0.05 ml/kg as olive oil solution). Animals were killed 24 hours after CCl4 administration, and the liver was grossly observed. The plasma was obtained by centrifugation. Activities of p-GPT were determined by the method of Reitman and Frankel and expressed in Karmen units.
Score for liver damage was as follows: […]
4 Clearly observable damage
Each figure indicates average of 5 to 6 mice. Values of p-GPT over 1,000 Karmen unit regarded as 1,000 for calculation of average for convenience.

[2] = Effect on concentration of ethyl alcohol in the blood; format: in vivo, mice; conditions: 250 mg/kg oral 6 h before ethyl alcohol 1,000 mg/kg
Protocol: The test compounds are dissolved or suspended in olive oil and administered orally at the dose of 250 mg/kg to the mice. After 6 hours, 1,000 mg/kg of ethyl alcohol was given orally. Blood was taken in a capillary from caudal vein at the time indicated in the results. The plasma was obtained by centrifugation. The concentration of ethyl alcohol in the plasma was measured by FID type gas liquid chromatography. Five mice were used for each group.

fatty liver (ethionine) = assay: Effect on fatty liver (ethionine model); format: in vivo, male mice (4 week-old, dd-strain); conditions: diet plus 0.2% ethionine and 0.2% compound, 5 days
From the text: There are known many factors inducing fatty liver. But, the fatty liver is grouped into a couple of patterns from the mechanism of lipid accumulation or metabolism of lipoprotein in the liver. Ethionine is a typical compound inducing fatty liver. It inhibits RNA and protein syntheses and destructs polysome of the liver cell. Fatty liver is induced by the inhibition of protein synthesis and the disturbance of lipoprotein secretion.
Usually, fatty liver is closely related to the accumulation of triglyceride in the liver. In the present example, the degree of fatty liver and protective or therapeutic effect against the fatty liver was evaluted by measurement of triglyceride content in the liver.
The animals used in the test were 4 week-old male mice (dd-strain).
The mice were submitted for 5 days to a normal diet (control), to the normal diet plus 0.2% ethionine (positive control), to the normal diet plus 0.2% ethionine and 0.2% of the compound of this invention, or to the normal diet plus 0.2% ethionine and 0.2% methionine which was the referential diet. At the end of the period of 5 days, content of triglyceride in the liver was studied colorimetrically by chromotropic acid method and the result was represented as triolein content (mg/g-liver).

[3] = system: fatty liver (carbon tetrachloride); assay: Therapeutic effect on fatty liver (carbon tetrachloride model); format: in vivo, male rat (35 week-old, SD strain)
Protocol: Carbon tetrachloride also induces fatty liver, but the picture of disease differs from the case of ethionine-induced fatty liver. Carbon tetrachloride is generally considered to damage microsome and thereby to inhibit protein synthesis and induce fatty liver.
Carbon tetrachloride was subscutaneously administered to 35 week-old male rat (SD strain) for 4 days at the dose of 1 ml/kg. The treated animals were left for 3 days after the last administration to maximize the manifestation of fatty liver.
Administration of the compounds of this invention was commenced on the fourth day after the administration of carbon tetrachloride was completed. It was orally given everyday for 10 days at the dose of 50 or 250 mg/kg. On the 11th day, the animals were sacrificed. The therapeutic effect was evaluated by determining the content of lipid in the liver (triglyceride and total lipid) and examining the histopathological changes. Triglyceride and total lipid were determined colorimetrically by chromotropic acid method and Bragdon's oxidation method, respectively.
Indices for the histopathological change is as follows.

in vivo = conditions: mouse, po
[4] = system: Chronic Liver Damage (thioacetamide); assay: Therapeutic effect on chronic liver damage (thioacetamide model), BSP test; format: in vivo, rats (Sprague Dawley strain); conditions: 12 times TAA 100 mg/kg, then diet + 0.2% compound
Protocol: In the tests of this Example, TAA was repeatedly administered to animals to prepare test animals suffering from somewhat chronic liver damages, and then the present compounds were administered thereto to know whether or not the compounds were effective against chronic hepatitis.
The degree of the liver damage and the therapeutic effects of the compounds were evaluated according to BSP test. The BSP test is a method in which BSP (sulfobromophthalein sodium), a dye known to be quickly metabolized in and excreted from the liver, is intravenously injected into animals and, after a definite period of time, the blood is taken out to measure the amount of BSP remaining in the plasma. In case the animals are suffering from the liver damage, the dye will remain, according to the degree of the damage, at the stage where a major portion of BSP is metabolized and excreted in the case of normal animals.
Five groups of rats (Sprague Dawley strain) were treated as follows:
Group A: The rats were orally administered with 100 mg/kg of thioacetamide,at 3 days intervals for 36 days (12 times of the administration), then were submitted for 10 days to a normal diet.
Group B: The rats were orally administered with 100 mg/kg of thioacetamide at 3 days intervals for 36 days (12 times of the administration), then were submitted for 10 days to the normal diet + 0.2% of compound 4.
Group C: The rats were orally administered with 100 mg/kg of thioacetamide at 3 days intervals for 36 days (12 times of the administration) then were submitted for 10 days to the normal diet + 0.2% of compound 2.
Group D: The rats were orally administered with 100 mg/kg of thioacetamide at 3 days intervals for 36 days (12 times of the administration) then were submitted for 10 days to the normal diet + 0.2% of anethol trithion.
Group E: The rats were submitted to the normal diet as the control.
Five rats were sacrified from each group at appropriate intervals for BSP (sulfobromophthalein) test, the results of which were shown as amounts (mg) of BSP remaining in 1 dl of plasma.

[5] = system: acute liver damage associated with discrete lobular necrosis (D-galactosamine); assay: Protective effect on acute hepatitis with mesenchymal reaction and discrete lobular necrosis (D-galactosamine model); format: in vivo, male rat (SD strain); conditions: 100 mg/kg oral 6 h before D-galactosamine
Protocol: D-Galactosamine is a compound which induces a discrete lobular necrosis associated with mesenchymal reaction similar to the change observed in human viral hepatitis, so that it is frequently used in producing a model for viral hepatitis.
The compound of this invention or anethol trithion was administered orally to the male rat (SD strain) at the dose of 100 mg/kg. Six hours after it, D-galacetosamine was intraperitoneally administered at the dose of 600 mg/kg. Four hours after it, an additional 300 mg/kg was administered intraperitoneally. Eight hours after it, the animals were sacrificed to collect the blood samples. P-GPT activity and triglyceride in the liver were measured to evaluate the effect of the compound of this invention.

[6] = system: bile flow and biliary salt; assay: Cholagogic action: bile flow and excretion of biliary salt; format: in vivo, male rat (4 week-aged, SD-JCL strain); conditions: 200 mg/kg oral; for bile flow / excretion of biliary salt: before treatment = 100
Protocol: The male rat (4 week-aged, SD-JCL strain) was anesthetized with sodium pentobarbital (37.5 mg/kg, intraperitoneal injection). The abdominal cavity was opened through a midline incision. The common bile duct was catheterized with polyethylene tube o.d. 0.8 mm. The catheter was brought to the outside through the abdominal incision wound prior to closing. Bile was collected from the catheter continuously with time intervals of one hour. The quantity of bile produced in one hour was determined by weighing and that of biliary salt was determined by enzymatic method (Ikagaku Jikkenho Koza 1B, Biological Constituents II, edited by Tamio YAMAKAWA). The amount of biliary salts was represented as cholic acid equivalent.
In the representation of the results, the quantities of bile and biliary salts produced in one hour prior to the administration of drug were taken as 100. The compound of this invention was orally administered at the dose of 200 mg/kg. As reference anethol trithion was used.

[7] = 250 mg/kg oral everyday for 10 days
[8] = 50 mg/kg oral everyday for 10 days

SMILES	p-GPT (plasma glutamic-pyruvic transaminase activity) [1]	Liver Damage Index [1]	Concentration of Ethyl alcohol in Plasma ([2]; 0 min)	Concentration of Ethyl alcohol in Plasma ([2]; 5 min)	Concentration of Ethyl alcohol in Plasma ([2]; 15 min)	Concentration of Ethyl alcohol in Plasma ([2]; 30 min)	Concentration of Ethyl alcohol in Plasma ([2]; 60 min)	Triglyceride (content in the liver, as triolein) (fatty liver (ethionine))	LD50 (in vivo)	other results
CCOC(=O)C(C(=O)SCC)=C1SCCS1 [Compound 26]	62 Karmen units	0.6	10±3 ppm	690±102 ppm	694±86 ppm	432±96 ppm	12±8 ppm			
CSCC[C@H](N)C(=O)O [Methionine, methionine, reference compound]								13.2 ± 2.1 mg/g		Total lipid [3, 7]: 168.6 ± 21.6 mg/g-liver; Triglyceride [3, 7]: 58.2 ± 9.6 mg/g-liver; Degree of fatty liver (histopathological examination) ([3]; 250 mg/kg oral, 10 days, one symbol per animal): + ± and ++ ++ ++ ±; therapeutic effect on fatty liver ([3]; carbon tetrachloride, in words): hardly exhibited a therapeutic effect
CCOC(=O)C(C(=O)OC(C)CC)=C1SCCS1 (stereo not drawn) [Compound 22]	67 Karmen units	0.4						11.3 ± 0.96 mg/g		
CC(C)OC(=O)C(C(=O)OC(C)C)=C1SCC[S+]1[O-] (stereo not drawn) [Compound 31, 2-(Diisopropoxycarbonyl)methyliden-1,3-dithiolan-1-oxide]	121 Karmen units	0.8	12±8 ppm	720±145 ppm	583±122 ppm	343±13 ppm	5±2 ppm		> 6000 mg/kg	
CCOC(=O)C(C(=O)OCC)=C1SCCS1 [Compound 2, Diethyl 1,3-dithiolan-2-ylidene malonate]	47 Karmen units	0.8	8±3 ppm	712±75 ppm	65±98 ppm	422±100 ppm	15±8 ppm		1110 mg/kg	Concentration of BSP in plasma ([4]; 2 Days): 9.8 ± 3.1 mg/dL; Concentration of BSP in plasma ([4]; 5 Days): 4.7 ± 0.8 mg/dL; Concentration of BSP in plasma ([4]; 10 Days): 0.8 ± 0.2 mg/dL; Triglyceride in liver [5]: 7.2 ± 1.5 mg/g; p-GPT [5]: 68±32 Karmen unit; bile flow ([6]; 1 hour after treatment): 108±3.8; excretion of biliary salt ([6]; 1 hour after treatment): 108±18; bile flow ([6]; 2 hours after treatment): 116±6.2; excretion of biliary salt ([6]; 2 hours after treatment): 120±12; bile flow ([6]; 3 hours after treatment): 109±8.3; excretion of biliary salt ([6]; 3 hours after treatment): 133±18; bile flow ([6]; 4 hours after treatment): 108±8.5; excretion of biliary salt ([6]; 4 hours after treatment): 120±21; bile flow ([6]; 5 hours after treatment): 98±3.8; excretion of biliary salt ([6]; 5 hours after treatment): 86±8.9; Amount of total biliary salts excreted for 5 hours relative to control ([6]; versus control): 1.63 times; Quantity of total excreted bile for 5 hours relative to control ([6]; versus control): 1.15 times
CCOC(=O)C(C(=O)OCC)=C1SCC[S+]1[O-] (stereo not drawn) [Compound 30]	156 Karmen units	0.8						12.6 ± 2.3 mg/g		
CCOC(=O)C(C(=O)OC(C)C)=C1SCCS1 [Compound 21, Ethyl isopropyl 1,3-dithiolan-2-ylidene malonate]	64 Karmen units	0.6							2230 mg/kg	Total lipid [3, 8]: 97.8 ± 10.3 mg/g-liver; Triglyceride [3, 8]: 40.6 ± 6.8 mg/g-liver; Total lipid [3, 7]: 70.2 ± 8.3 mg/g-liver; Triglyceride [3, 7]: 24.8 ± 3.2 mg/g-liver; Triglyceride in liver [5]: 6.8 ± 1.2 mg/g; p-GPT [5]: 47±21 Karmen unit
